Source: patent US20200029563A1, “NOVEL 5-SUBSTITUTED IMIDAZOLYLMETHYLDIOXOLANE DERIVATIVES” (Bayer CropScience Aktiengesellschaft, priority 2016, published 2020)

Test: Log P by HPLC on reversed phase columns (EEC directive 79/831 Annex V.A8)
Type: physicochemical
Conditions: method [a]: LC-UV, acidic range, 0.1% formic acid in water and acetonitrile as eluent
Protocol: Measurement of Log P values was performed according to EEC directive 79/831 Annex V.A8 by HPLC (High Performance Liquid Chromatography) on reversed phase columns with the following methods: • ^[a] Log P value is determined by measurement of LC-UV, in an acidic range, with 0.1% formic acid in water and acetonitrile as eluent (linear gradient from 10% acetonitrile to 95% acetonitrile). • ^[b] Log P value is determined by measurement of LC-UV, in a neutral range, with 0.001 molar ammonium acetate solution in water and acetonitrile as eluent (linear gradient from 10% acetonitrile to 95% acetonitrile). • ^[c] Log P value is determined by measurement of LC-UV, in an acidic range, with 0.1% phosphoric acid and acetonitrile as eluent (linear gradient from 10% acetonitrile to 95% acetonitrile).
If more than one Log P value is available within the same method, all the values are given and separated by “+”.
Calibration was done with straight-chain alkan-2-ones (with 3 to 16 carbon atoms) with known Log P values (measurement of Log P values using retention times with linear interpolation between successive alkanones).

[1] = reversed phase HPLC columns, Table 1

Row | LogP (Table 1) | Structure (SMILES) | also measured
1 | 3.77^[a] | FC(F)(F)c1cc(Oc2ccc(Br)cc2)ccc1C1(Cn2cncc2Cl)OCCO1 [Compound I-06] | 
2 | 4.64^[a] | FC(F)(F)c1cncn1CC1(c2ccc(Oc3ccc(Cl)cc3)cc2Cl)OCCO1 [Compound I-10] | 
3 | 2.88^[a] | Fc1cncn1CC1(c2ccc(Oc3ccc(Cl)cc3)cc2Cl)OCCO1 [Compound I-11] | 
4 | 3.06^[a] | Fc1cncn1CC1(c2ccc(Oc3ccc(Cl)cc3)cc2C(F)(F)F)OCCO1 [Compound I-15] | 
5 | 2.78^[a] | Fc1cncn1CC1(c2ccc(Oc3ccc(Br)cc3)nc2C(F)(F)F)OCCO1 [Compound I-16] | 
6 | 2.34^[a] | Fc1nc(Oc2ccc(Cl)cc2)ccc1C1(Cn2cncc2F)OCCO1 [Compound I-17] | 
7 | 2.17^[a] | Fc1cncn1CC1(c2ccc(Oc3ccc(Br)nc3)nc2C(F)(F)F)OCCO1 [Compound I-20] | 
8 | 3.58 ^[a] | FC(F)(F)c1cc(Oc2ccc(Cl)cc2)ccc1C1(Cn2cncc2Br)OCCO1 [Compound I-27] | 
9 | 3.13 ^[a] | C#Cc1cncn1CC1(c2ccc(Oc3ccc(Cl)cc3)cc2C(F)(F)F)OCCO1 [Compound I-28] | 
10 | 3.44 ^[a] | FC(F)(F)c1ccc(Oc2ccc(C3(Cn4cncc4Br)OCCO3)c(Cl)c2)cc1 [Compound I-29] | 
11 | 3.92 ^[a] | N#Cc1cncn1CC1(c2ccc(Oc3ccc(C(F)(F)F)cc3)cc2Cl)OCCO1 [Compound I-34] | 
12 | 4.03 ^[a] | N#Cc1cncn1CC1(c2ccc(Oc3ccc(Cl)cc3)cc2C(F)(F)F)OCCO1 [Compound I-35] | 

Continued, molecule first:

Row | Structure (SMILES) | LogP (Table 1) | also measured
13 | CC1COC(Cn2cncc2Cl)(c2ccc(Oc3ccc(Cl)cc3)cc2Cl)O1 (mixture of isomers) [Compound I-09] | 3.64^[a] | 
14 | CC1COC(Cn2cncc2Br)(c2ccc(Oc3ccc(Cl)cc3)cc2Cl)O1 (racemic) [Compound I-23] | 3.68^[a] | 
15 | C#Cc1cncn1CC1(c2ccc(Oc3ccc(Cl)cc3)cc2Cl)OCC(C)O1 (racemic) [Compound I-26] | 3.15 ^[a] | 
16 | CC1COC(Cn2cncc2Br)(c2ccc(Oc3ccc(C(F)(F)F)cc3)cc2Cl)O1 (racemic) [Compound I-31] | 3.85 ^[a] | 
17 | CC1COC(Cn2cncc2C#C[Si](C)(C)C)(c2ccc(Oc3ccc(Cl)cc3)cc2Cl)O1 (racemic) [I-RP-03] |  | LogP (Table 2 (I-RP compounds)): 4.90 ^[a]
18 | Clc1ccc(Oc2ccc(C3(Cn4cncc4Cl)OCCO3)c(Cl)c2)cc1 [Compound I-01, 5-chloro-1-[[2-[2-chloro-4-(4-chlorophenoxy)phenyl]-1,3-dioxolan-2-yl]methyl]imidazole] |  | chromatographic logP [1]: 3.29
19 | Clc1ccc(Oc2ccc(C3(Cn4cncc4Br)OCCO3)c(Cl)c2)cc1 [Compound I-02, 5-bromo-1-[[2-[2-chloro-4-(4-chlorophenoxy)phenyl]-1,3-dioxolan-2-yl]methyl]imidazole] |  | chromatographic logP [1]: 3.35
20 | Clc1cc(Oc2ccc(I)cc2)ccc1C1(Cn2cncc2Cl)OCCO1 [Compound I-03] | 3.82^[a] | 
21 | FC(F)(F)c1cc(Oc2ccc(Cl)cc2)ccc1C1(Cn2cncc2Cl)OCCO1 [Compound I-04, 5-chloro-1-[[2-[4-(4-chlorophenoxy)-2-(trifluoromethyl)phenyl]-1,3-dioxolan-2-yl]methyl]imidazole] |  | chromatographic logP [1]: 3.75
22 | FC(F)(F)c1cc(Oc2ccc(Cl)nc2)ccc1C1(Cn2cncc2Cl)OCCO1 [Compound I-05] | 2.58^[a] | 
23 | Clc1cc(Oc2ccc(Br)cc2)ccc1C1(Cn2cncc2Cl)OCCO1 [Compound I-07] | 3.53^[a] | 
24 | Clc1cc(Oc2ccc(I)cc2)ccc1C1(Cn2cncc2Br)OCCO1 [Compound I-08] | 3.76^[a] | 
25 | CC1COC(Cn2cncc2F)(c2ccc(Oc3ccc(Cl)cc3)cc2Cl)O1 (stereo not shown) [Compound I-12, 1-[[2-[2-chloro-4-(4-chlorophenoxy)phenyl]-4-methyl-1,3-dioxolan-2-yl]methyl]-5-fluoro-imidazole] |  | chromatographic logP [1]: 3.06
26 | Clc1ccc(Oc2ccc(C3(Cn4cncc4Cl)OCCO3)c(Cl)c2)cn1 [Compound I-13] | 2.42^[a] | 
27 | Clc1ccc(Oc2ccc(C3(Cn4cncc4Cl)OCCO3)c(Cl)c2)nc1 [Compound I-14] | 2.66^[a] | 
28 | Fc1cncn1CC1(c2ccc(Oc3ccc(Cl)cc3)nc2C(F)(F)F)OCCO1 [Compound I-18, 6-(4-chlorophenoxy)-3-[2-[(5-fluoroimidazol-1-yl)methyl]-1,3-dioxolan-2-yl]-2-(trifluoromethyl)pyridine] |  | chromatographic logP [1]: 2.42
29 | Fc1cncn1CC1(c2ccc(Oc3ccc(C(F)(F)F)nc3)nc2C(F)(F)F)OCCO1 [Compound I-19, 3-[2-[(5-fluoroimidazol-1-yl)methyl]-1,3-dioxolan-2-yl]-2-(trifluoromethyl)-6-[[6-(trifluoromethyl)-3-pyridyl]oxy]pyridine] |  | chromatographic logP [1]: 2.53
30 | Clc1cc(Oc2ccc(Br)cc2)ccc1C1(Cn2cncc2Br)OCCO1 [Compound I-21] | 3.48^[a] | 
31 | C#Cc1cncn1CC1(c2ccc(Oc3ccc(Cl)cc3)cc2Cl)OCCO1 [Compound I-22] | 2.94^[a] | 
32 | C[Si](C)(C)C#Cc1ccc(Oc2ccc(C3(Cn4cncc4Br)OCCO3)c(Cl)c2)cc1 [Compound I-24] | 4.98 ^[a] | 
33 | C#Cc1ccc(Oc2ccc(C3(Cn4cncc4C#C)OCCO3)c(Cl)c2)cc1 [Compound I-25] | 2.76 ^[a] | 
34 | C#Cc1cncn1CC1(c2ccc(Oc3ccc(C(F)(F)F)cc3)cc2Cl)OCCO1 [Compound I-30, 1-[(2-{2-chloro-4-[4-(trifluoromethyl)phenoxy]phenyl}-1,3-dioxolan-2-yl)methyl]-5-ethynyl-1H-imidazole] |  | chromatographic logP (Table 1): 3.04
35 | CC1COC(Cn2cncc2C#N)(c2ccc(Oc3ccc(C(F)(F)F)cc3)cc2Cl)O1 (stereo not shown) [Compound I-32, 1-{[2-{2-chloro-4-[4-(trifluoromethyl)phenoxy]phenyl}-4-methyl-1,3-dioxolan-2-yl]methyl}-1H-imidazole-5-carbonitrile] |  | chromatographic logP [1]: 4.08
36 | N#Cc1cncn1CC1(c2ccc(Oc3ccc(Cl)cc3)cc2Cl)OCCO1 [Compound I-33] | 3.78 ^[a] | 
37 | C[Si](C)(C)C#Cc1cncn1CC1(c2ccc(Oc3ccc(Cl)cc3)cc2Cl)OCCO1 [I-RP-01] |  | LogP (Table 2 (I-RP compounds)): 4.54 ^[a]
38 | C[Si](C)(C)C#Cc1ccc(Oc2ccc(C3(Cn4cncc4C#C[Si](C)(C)C)OCCO3)c(Cl)c2)cc1 [I-RP-02] |  | LogP (Table 2 (I-RP compounds)): 6.17 ^[a]
39 | C[Si](C)(C)C#Cc1cncn1CC1(c2ccc(Oc3ccc(Cl)cc3)cc2C(F)(F)F)OCCO1 [I-RP-04] |  | LogP (Table 2 (I-RP compounds)): 4.67 ^[a]
40 | C[Si](C)(C)C#Cc1cncn1CC1(c2ccc(Oc3ccc(C(F)(F)F)cc3)cc2Cl)OCCO1 [I-RP-05, 1-[(2-{2-chloro-4-[4-(trifluoromethyl)phenoxy]phenyl}-1,3-dioxolan-2-yl)methyl]-5-[(trimethylsilyl)ethynyl]-1H-imidazole] |  | chromatographic logP (Table 2 (I-RP compounds)): 4.59
